# From article PMC5791972 (PLoS ONE, 2018)
# Like-named read-outs stand apart in the source and are kept apart here.
# Assays:
# [1] = test system: NMRI mice; test: Locomotor activity; format: in vivo, mouse; details: 0.1, 3 or 10 mg/kg PO
# Experimental: NMRI mice were habituated to their room for at least 2 weeks after the delivery and kept under standard conditions in groups of 4–5 animals per cage. Food and water were available ad libitum.
# Spontaneous motility and rearing were measured by an automated system (Coulbourn Instruments, USA). Animals were introduced into transparent square cages (40 cm length) that are equipped with 2 light barrier systems in order to monitor the movements as well as rearing behavior automatically. The movements of the animals were recorded for 30 minutes. At the end of the experiment, the animals were sacrificed via isofluorane inhalation and subsequent decapitation.
# [2] = target: T1, GABA transaminase (Rattus norvegicus, UniProt P50554); test: enzyme assay; format: biochemical; details: 1.0E-06 M
# T1 construct: rat brain; from tissue; host or cells: rat brain
# T1 sequence (P50554 28-500): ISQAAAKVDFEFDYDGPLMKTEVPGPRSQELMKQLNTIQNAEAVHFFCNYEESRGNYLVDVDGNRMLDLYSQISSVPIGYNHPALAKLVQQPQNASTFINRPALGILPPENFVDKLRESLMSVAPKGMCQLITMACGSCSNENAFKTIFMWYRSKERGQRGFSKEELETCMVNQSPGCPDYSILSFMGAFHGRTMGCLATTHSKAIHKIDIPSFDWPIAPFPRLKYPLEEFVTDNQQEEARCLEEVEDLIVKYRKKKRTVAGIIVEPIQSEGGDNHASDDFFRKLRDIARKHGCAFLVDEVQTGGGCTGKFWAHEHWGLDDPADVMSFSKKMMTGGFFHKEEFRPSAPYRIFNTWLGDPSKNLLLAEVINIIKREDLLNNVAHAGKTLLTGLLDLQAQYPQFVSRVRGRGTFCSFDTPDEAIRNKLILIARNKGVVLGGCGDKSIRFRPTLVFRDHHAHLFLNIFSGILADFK
# [3] = target: T2, tyrosine hydroxylase (Rattus norvegicus, UniProt P04177); test: enzyme assay; format: biochemical; details: 1.0E-06 M
# T2 construct: rat striatum; from tissue; host or cells: rat striatum
# T2 sequence (P04177 whole entry): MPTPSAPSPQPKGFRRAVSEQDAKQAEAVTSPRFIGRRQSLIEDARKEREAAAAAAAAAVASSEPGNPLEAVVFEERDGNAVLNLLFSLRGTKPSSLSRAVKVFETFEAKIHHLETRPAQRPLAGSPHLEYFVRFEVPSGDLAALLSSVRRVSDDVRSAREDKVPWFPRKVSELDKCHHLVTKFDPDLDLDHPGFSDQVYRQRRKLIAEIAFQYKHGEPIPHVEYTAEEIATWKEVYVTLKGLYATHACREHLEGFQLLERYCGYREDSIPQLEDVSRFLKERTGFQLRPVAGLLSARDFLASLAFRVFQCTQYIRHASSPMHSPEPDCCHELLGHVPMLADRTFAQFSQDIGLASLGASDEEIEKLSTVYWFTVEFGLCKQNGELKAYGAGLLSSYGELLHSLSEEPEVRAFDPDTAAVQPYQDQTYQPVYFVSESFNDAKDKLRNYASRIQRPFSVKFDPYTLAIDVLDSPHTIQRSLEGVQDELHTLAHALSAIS
# [4] = in vivo
# [5] = in vitro; details: plasma
# [6] = target: T3, NK2 (h) (Homo sapiens, UniProt P21452); format: binding; details: 1.0E-06 M
# T3 construct: host or cells: CHO cells
# T3 sequence (P21452 1-398): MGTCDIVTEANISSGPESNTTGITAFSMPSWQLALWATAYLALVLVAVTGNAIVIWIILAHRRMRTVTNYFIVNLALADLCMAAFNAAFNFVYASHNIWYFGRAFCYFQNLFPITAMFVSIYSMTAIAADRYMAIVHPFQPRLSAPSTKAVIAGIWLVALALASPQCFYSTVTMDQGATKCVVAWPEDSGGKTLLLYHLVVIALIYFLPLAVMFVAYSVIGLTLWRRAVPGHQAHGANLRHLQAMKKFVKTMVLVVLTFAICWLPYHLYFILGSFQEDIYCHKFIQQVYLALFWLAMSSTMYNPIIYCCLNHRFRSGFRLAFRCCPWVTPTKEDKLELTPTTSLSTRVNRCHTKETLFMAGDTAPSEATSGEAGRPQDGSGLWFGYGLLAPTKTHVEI
# [7] = target: T4, 5-HT2B (h) (Homo sapiens, UniProt P41595); format: binding; details: 1.0E-06 M
# T4 construct: host or cells: CHO cells
# T4 sequence (P41595 whole entry): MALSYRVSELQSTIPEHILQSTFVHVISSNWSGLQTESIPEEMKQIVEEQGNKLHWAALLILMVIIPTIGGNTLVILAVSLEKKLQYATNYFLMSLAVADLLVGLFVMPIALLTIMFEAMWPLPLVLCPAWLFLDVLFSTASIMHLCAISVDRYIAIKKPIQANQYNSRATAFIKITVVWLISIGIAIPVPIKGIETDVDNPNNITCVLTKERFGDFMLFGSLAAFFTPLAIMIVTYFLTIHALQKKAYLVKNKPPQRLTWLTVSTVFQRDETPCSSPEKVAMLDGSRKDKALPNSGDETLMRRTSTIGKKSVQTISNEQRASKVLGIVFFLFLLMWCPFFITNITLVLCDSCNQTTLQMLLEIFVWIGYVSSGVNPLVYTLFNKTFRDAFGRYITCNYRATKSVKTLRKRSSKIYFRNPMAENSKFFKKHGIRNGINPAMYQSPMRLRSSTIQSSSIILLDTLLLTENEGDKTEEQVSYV
# [8] = target: T5, VPAC1 (VIP1) (h) (Homo sapiens, UniProt P32241); format: binding; details: 1.0E-06 M
# T5 construct: host or cells: CHO cells
# T5 sequence (P32241 31-457): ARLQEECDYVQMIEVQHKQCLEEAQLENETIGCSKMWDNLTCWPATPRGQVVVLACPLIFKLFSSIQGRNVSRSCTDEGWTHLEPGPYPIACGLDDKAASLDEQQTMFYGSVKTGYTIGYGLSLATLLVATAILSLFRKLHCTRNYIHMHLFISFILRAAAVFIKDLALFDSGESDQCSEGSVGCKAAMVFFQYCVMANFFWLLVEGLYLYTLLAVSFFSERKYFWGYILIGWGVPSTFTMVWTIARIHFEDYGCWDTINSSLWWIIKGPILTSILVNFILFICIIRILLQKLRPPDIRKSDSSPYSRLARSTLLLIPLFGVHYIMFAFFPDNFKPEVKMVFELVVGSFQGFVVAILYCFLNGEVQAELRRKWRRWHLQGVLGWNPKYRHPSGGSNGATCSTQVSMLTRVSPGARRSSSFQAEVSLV
# [9] = target: T6, COX1 (h) (Homo sapiens, UniProt P23219); test: biochemical; details: 1.0E-06 M
# T6 construct: Cerep (contract assay); host or cells: Sf9 cells
# T6 sequence (P23219 24-599): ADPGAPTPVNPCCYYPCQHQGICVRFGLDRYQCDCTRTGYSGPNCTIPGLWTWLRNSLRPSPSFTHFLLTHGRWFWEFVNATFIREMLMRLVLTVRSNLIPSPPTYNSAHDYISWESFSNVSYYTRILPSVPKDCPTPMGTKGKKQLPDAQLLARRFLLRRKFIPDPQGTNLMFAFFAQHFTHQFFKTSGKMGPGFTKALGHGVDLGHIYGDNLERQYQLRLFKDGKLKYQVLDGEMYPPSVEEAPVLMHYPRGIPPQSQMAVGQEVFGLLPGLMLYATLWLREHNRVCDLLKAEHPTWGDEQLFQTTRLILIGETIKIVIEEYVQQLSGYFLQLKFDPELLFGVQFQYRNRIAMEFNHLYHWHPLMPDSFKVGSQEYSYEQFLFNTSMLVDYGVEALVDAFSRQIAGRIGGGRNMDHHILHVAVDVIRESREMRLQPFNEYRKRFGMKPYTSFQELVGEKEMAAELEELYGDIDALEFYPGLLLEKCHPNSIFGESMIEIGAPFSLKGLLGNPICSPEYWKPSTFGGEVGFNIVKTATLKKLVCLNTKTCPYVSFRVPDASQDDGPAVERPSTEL
# [10] = target: MMP-9 (h) (Homo sapiens, UniProt P14780); test: biochemical; format: biochemical; details: 1.0E-06 M
# MMP-9 (h), sequence (P14780 94-707): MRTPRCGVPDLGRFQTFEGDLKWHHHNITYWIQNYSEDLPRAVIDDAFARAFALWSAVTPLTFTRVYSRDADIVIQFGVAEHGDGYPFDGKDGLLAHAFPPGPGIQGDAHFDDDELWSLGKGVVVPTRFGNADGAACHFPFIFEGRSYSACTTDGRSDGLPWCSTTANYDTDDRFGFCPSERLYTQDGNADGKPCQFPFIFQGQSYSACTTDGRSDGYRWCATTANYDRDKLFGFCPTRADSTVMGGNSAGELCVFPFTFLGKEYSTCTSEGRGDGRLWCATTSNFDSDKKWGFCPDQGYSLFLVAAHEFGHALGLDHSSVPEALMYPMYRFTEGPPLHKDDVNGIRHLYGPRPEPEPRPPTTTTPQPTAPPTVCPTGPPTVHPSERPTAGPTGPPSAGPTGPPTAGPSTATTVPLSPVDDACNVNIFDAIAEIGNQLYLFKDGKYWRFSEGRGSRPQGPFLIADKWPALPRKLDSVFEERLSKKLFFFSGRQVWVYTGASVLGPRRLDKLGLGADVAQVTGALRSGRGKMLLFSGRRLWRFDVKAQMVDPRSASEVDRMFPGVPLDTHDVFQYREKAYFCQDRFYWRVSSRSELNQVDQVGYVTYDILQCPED
# [11] = target: T7, phosphatase 1B (h) (PTP1B) (Homo sapiens, UniProt P18031); test: enzyme assay; format: biochemical; details: 1.0E-06 M
# T7 construct: host or cells: E. coli
# T7 sequence (P18031 1-435): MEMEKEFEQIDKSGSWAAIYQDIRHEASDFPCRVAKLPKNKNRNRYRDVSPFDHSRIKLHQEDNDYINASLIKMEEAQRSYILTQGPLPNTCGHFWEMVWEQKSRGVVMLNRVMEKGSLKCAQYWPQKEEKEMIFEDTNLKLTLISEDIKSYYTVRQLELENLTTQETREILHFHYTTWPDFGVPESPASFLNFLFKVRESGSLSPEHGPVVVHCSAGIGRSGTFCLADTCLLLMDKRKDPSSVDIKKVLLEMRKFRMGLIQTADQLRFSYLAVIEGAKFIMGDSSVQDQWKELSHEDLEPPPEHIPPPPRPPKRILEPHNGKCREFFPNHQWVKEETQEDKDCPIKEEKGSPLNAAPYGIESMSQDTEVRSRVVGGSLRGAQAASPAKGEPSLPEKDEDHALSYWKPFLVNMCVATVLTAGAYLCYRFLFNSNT
# [12] = target: Abl kinase (h) (Homo sapiens, UniProt P00519); test: biochemical; details: 1.0E-06 M
# Abl kinase (h), sequence (P00519 whole entry): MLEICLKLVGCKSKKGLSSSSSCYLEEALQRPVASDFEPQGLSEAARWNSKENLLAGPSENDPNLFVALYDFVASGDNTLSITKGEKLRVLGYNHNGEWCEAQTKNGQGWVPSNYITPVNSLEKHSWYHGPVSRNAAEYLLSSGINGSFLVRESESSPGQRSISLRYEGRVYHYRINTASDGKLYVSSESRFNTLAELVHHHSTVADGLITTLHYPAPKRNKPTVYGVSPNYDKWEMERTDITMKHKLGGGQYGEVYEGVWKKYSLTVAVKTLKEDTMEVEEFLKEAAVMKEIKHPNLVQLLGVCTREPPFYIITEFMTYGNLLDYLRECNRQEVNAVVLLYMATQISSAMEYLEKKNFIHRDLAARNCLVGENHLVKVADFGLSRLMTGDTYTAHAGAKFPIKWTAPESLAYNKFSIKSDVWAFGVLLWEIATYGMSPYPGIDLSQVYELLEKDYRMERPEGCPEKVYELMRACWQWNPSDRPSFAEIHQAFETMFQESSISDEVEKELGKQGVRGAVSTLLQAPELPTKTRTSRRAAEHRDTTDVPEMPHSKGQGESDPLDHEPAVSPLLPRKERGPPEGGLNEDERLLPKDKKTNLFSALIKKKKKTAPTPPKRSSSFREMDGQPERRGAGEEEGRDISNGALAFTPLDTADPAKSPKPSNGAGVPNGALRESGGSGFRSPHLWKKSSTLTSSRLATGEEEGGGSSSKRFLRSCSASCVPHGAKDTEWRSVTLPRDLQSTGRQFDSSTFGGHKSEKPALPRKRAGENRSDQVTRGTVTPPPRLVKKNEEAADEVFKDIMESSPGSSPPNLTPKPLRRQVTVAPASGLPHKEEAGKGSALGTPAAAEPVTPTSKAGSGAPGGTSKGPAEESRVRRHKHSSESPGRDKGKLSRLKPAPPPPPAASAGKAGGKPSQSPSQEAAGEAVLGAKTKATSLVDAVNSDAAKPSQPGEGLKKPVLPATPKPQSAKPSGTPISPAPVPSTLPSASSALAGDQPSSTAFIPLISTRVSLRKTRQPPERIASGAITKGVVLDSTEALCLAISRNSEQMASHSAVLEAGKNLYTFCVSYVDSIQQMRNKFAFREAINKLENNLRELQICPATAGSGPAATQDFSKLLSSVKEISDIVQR
# [13] = target: GABA transporter (Rattus norvegicus, UniProt P23978)
# [14] = target: 5-HT4e (h) (Homo sapiens, UniProt Q13639); test: biochemical
# 5-HT4e (h), sequence (Q13639 1-378 isoform Q13639-5): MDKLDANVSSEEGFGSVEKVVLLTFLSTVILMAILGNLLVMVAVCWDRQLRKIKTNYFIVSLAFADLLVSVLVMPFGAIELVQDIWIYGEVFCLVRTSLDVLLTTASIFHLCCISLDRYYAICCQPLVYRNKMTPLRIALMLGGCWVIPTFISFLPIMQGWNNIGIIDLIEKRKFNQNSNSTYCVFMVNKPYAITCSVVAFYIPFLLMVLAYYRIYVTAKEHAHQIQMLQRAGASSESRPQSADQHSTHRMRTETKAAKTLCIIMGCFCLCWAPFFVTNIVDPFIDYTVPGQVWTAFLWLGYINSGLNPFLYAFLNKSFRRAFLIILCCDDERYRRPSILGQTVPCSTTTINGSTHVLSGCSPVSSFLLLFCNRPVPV
# [15] = Swiss Webster, mouse, iv, 1 mg/kg
# [16] = Swiss Webster, mouse, po, 10 mg/kg
# [17] = male, C57BL/6, mouse, iv, 1 mg/kg
# [18] = male, C57BL/6, mouse, po, 10 mg/kg
structure (smiles),measurement,setting,value
Cn1c(=O)n(CCCO)c(=O)c2c1nc(Oc1cccc(Cl)c1)n2Cc1ccc(Cl)cc1 [HC-070],locomotor activity,[1],not impacted
same,inhibition at 1 µM,[2]; read-out: % Inhibition 1st,-33.1%
same,inhibition at 1 µM,[2]; read-out: % Inhibition Mean,-34.6%
same,inhibition at 1 µM,[3]; read-out: % Inhibition 1st,-27.2%
same,inhibition at 1 µM,[3]; read-out: % Inhibition Mean,-23%
same,Vd,[4]; [15],2.2 L/kg
same,clearance,[4]; [15],11 mL/min/kg
same,half-life,[4]; [15],3.6 h
same,Tmax,[4]; [16],1 h
same,half-life,[4]; [16],2.7 h
same,Vd,[4]; [17],1.5 L/kg
same,clearance,[4]; [17],13 mL/min/kg
same,concentration at 2 h,"[4]; male, C57BL/6, mouse, iv, 1 mg/kg, CBR (concentration in brain)",299 ± 11 nM
same,concentration at 2 h,"[4]; male, C57BL/6, mouse, iv, 1 mg/kg, CPL (concentration in plasma)",339 ± 66 nM
same,Cmax,[4]; [18],937 nM
same,Tmax,[4]; [18],1 h
same,concentration at 2 h,"[4]; male, C57BL/6, mouse, po, 10 mg/kg, CBR (concentration in brain)",525 ± 72 nM
same,concentration at 2 h,"[4]; male, C57BL/6, mouse, po, 10 mg/kg, CPL (concentration in plasma)",583 ± 108 nM
same,fraction unbound,[5],0.004
Cn1c(=O)n(CCCO)c(=O)c2c1nc(Oc1cccc(OC(F)(F)F)c1)n2Cc1ccc(Cl)cc1 [HC-608],inhibition at 1 µM,[6]; read-out: % Inhibition 1st,-10%
same,inhibition at 1 µM,[6]; read-out: % Inhibition 2nd,18.9%
same,inhibition at 1 µM,[6]; read-out: % Inhibition Mean,4.4%
same,inhibition at 1 µM,[7]; read-out: % Inhibition 1st,15.9%
same,inhibition at 1 µM,[7]; read-out: % Inhibition 2nd,15.8%
same,inhibition at 1 µM,[7]; read-out: % Inhibition Mean,15.9%
same,inhibition at 1 µM,[8]; read-out: % Inhibition 1st,-9%
same,inhibition at 1 µM,[8]; read-out: % Inhibition 2nd,-8.4%
same,inhibition at 1 µM,[8]; read-out: % Inhibition Mean,-8.7%
same,inhibition at 1 µM,[9]; read-out: % Inhibition 1st,-1.5%
same,inhibition at 1 µM,[9]; read-out: % Inhibition 2nd,27.2%
same,inhibition at 1 µM,[9]; read-out: % Inhibition Mean,12.9%
same,inhibition at 1 µM,[10]; read-out: % Inhibition 1st,8.7%
same,inhibition at 1 µM,[10]; read-out: % Inhibition 2nd,17.2%
same,inhibition at 1 µM,[10]; read-out: % Inhibition Mean,13%
same,% Inhibition 1st,[11],-6.7%
same,% Inhibition 2nd,[11],-5.9%
same,% Inhibition Mean,[11],-6.3%
same,inhibition at 1 µM,[12]; read-out: % Inhibition 1st,11.4%
same,inhibition at 1 µM,[12]; read-out: % Inhibition 2nd,10.2%
same,inhibition at 1 µM,[12]; read-out: % Inhibition Mean,10.8%
same,% Inhibition 2nd,[13],-18.4%
same,% Inhibition Mean,[13],-15.7%
same,inhibition at 1 µM,[14]; read-out: % Inhibition 1st,-3.7%
same,inhibition at 1 µM,[14]; read-out: % Inhibition 2nd,10.6%
same,inhibition at 1 µM,[14]; read-out: % Inhibition Mean,3.4%
